According to patent US9181239B2, “Pyridopyrimidinone inhibitors of kinases” (AbbVie Inc., priority 2011, dated 2015):

What follows are compounds tested against T1, Wee1 kinase (Homo sapiens, UniProt P30291) (assay: Wee1 time-resolved fluorescence equilibrium binding assay (probe displacement)). Details: GST-tagged-Wee1 kinase 2 nM, fluorescent probe 300 nM, 1 hour incubation; read-out: Wee-1 binding (Ki nM).
T1 construct: purchased Carnabio 05-177
Method: Wee1 kinase was assayed using a time-resolved fluorescence equilibrium binding assay monitoring displacement of a rapidly reversible Oregon Green-labeled ATP-competitive kinase probe (N-(2-(2-(2-(4-(4-(5-chloro-4-(2-(1-hydroxycyclobutyl)thiazol-5-yl)-1H-pyrrolo[2,3-b]pyridin-2-yl)phenyl)piperazin-1-yl)ethoxy)ethoxy)ethyl)-2′,7′-difluoro-3′,6′-dihydroxy-3-oxo-3H-spiro[isobenzofuran-1,9′-xanthene]-5-carboxamide) by competitive Wee1 inhibitors.

T1 sequence (P30291 whole entry): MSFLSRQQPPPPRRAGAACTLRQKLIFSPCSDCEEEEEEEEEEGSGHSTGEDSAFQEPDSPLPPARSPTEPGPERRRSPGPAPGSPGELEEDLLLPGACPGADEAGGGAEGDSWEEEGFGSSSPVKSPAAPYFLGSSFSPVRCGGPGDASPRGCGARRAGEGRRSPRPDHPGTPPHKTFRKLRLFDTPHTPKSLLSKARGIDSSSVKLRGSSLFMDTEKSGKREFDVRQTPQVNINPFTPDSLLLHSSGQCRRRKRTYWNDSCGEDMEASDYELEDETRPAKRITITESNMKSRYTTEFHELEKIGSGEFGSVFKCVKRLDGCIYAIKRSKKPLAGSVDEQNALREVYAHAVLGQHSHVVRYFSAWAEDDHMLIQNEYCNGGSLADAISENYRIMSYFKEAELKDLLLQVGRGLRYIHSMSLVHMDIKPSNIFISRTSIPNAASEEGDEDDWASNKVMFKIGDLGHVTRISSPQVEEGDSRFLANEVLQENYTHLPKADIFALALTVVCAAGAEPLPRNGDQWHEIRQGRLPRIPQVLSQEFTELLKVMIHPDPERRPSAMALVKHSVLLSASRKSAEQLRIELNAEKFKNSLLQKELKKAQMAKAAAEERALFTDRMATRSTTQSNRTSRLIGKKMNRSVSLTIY

| Compound | Ki |
| --- | --- |
| CN1CCN(c2ccc(Nc3ncc4c(=O)c(-c5ccccc5Cl)c[nH]c4n3)cc2)CC1 [Example 1, 6-(2-chlorophenyl)-2-{[4-(4-methylpiperazin-1-yl)phenyl]amino}pyrido[2,3-d]pyrimidin-5(8H)-one] | 9.5 nM |
| CN1CCN(c2ccc(Nc3ncc4c(=O)c(-c5ccccc5Cl)cn(-c5ccccc5)c4n3)cc2)CC1 [Example 2, 6-(2-chlorophenyl)-2-{[4-(4-methylpiperazin-1-yl)phenyl]amino}-8-phenylpyrido[2,3-d]pyrimidin-5(8H)-one] | 2.4 nM |
| CN1CCN(c2ccc(Nc3ncc4c(=O)c(-c5ccccc5Cl)c(-c5ccccc5)[nH]c4n3)cc2)CC1 [Example 3, 6-(2-chlorophenyl)-2-{[4-(4-methylpiperazin-1-yl)phenyl]amino}-7-phenylpyrido[2,3-d]pyrimidin-5(8H)-one] | 37 nM |
| CN1CCN(c2ccc(Nc3ncc4c(=O)c(-c5ccccc5Cl)cn(C)c4n3)cc2)CC1 [Example 5, 6-(2-chlorophenyl)-8-methyl-2-{[4-(4-methylpiperazin-1-yl)phenyl]amino}pyrido[2,3-d]pyrimidin-5(8H)-one] | 3.7 nM |
| CN1CCN(c2ccc(Nc3ncc4c(=O)c(-c5c(Cl)cccc5Cl)c5n(c4n3)CCC5)cc2)CC1 [Example 6, 6-(2,6-dichlorophenyl)-2-{[4-(4-methylpiperazin-1-yl)phenyl]amino}-8,9-dihydropyrimido[4,5-e]indolizin-5(7H)-one] | 5.7 nM |
| CN1CCN(c2ccc(Nc3ncc4c(=O)c(-c5c(Cl)cccc5Cl)cn(-c5ccc(F)cc5)c4n3)cc2)CC1 [Example 9, 6-(2,6-dichlorophenyl)-8-(4-fluorophenyl)-2-{[4-(4-methylpiperazin-1-yl)phenyl]amino}pyrido[2,3-d]pyrimidin-5(8H)-one] | < 1 nM |
| CN1CCN(c2ccc(Nc3ncc4c(=O)c(-c5c(Cl)cccc5Cl)cn(C5CC5)c4n3)cc2)CC1 [Example 10, 8-cyclopropyl-6-(2,6-dichlorophenyl)-2-{[4-(4-methylpiperazin-1-yl)phenyl]amino}pyrido[2,3-d]pyrimidin-5(8H)-one] | < 1 nM |
| CN1CCN(c2ccc(Nc3ncc4c(=O)c(-c5c(Cl)cccc5Cl)cn(CC(F)(F)F)c4n3)cc2)CC1 [Example 11, 6-(2,6-dichlorophenyl)-2-{[4-(4-methylpiperazin-1-yl)phenyl]amino}-8-(2,2,2-trifluoroethyl)pyrido[2,3-d]pyrimidin-5(8H)-one] | 3 nM |
| CN1CCN(c2ccc(Nc3ncc4c(=O)c(-c5c(Cl)cccc5Cl)cn(Cc5ccncc5)c4n3)cc2)CC1 [Example 12, 6-(2,6-dichlorophenyl)-2-{[4-(4-methylpiperazin-1-yl)phenyl]amino}-8-(pyridin-4-ylmethyl)pyrido[2,3-d]pyrimidin-5(8H)-one] | 14 nM |
| CN(C)CCn1cc(-c2c(Cl)cccc2Cl)c(=O)c2cnc(Nc3ccc(N4CCN(C)CC4)cc3)nc21 [Example 13, 6-(2,6-dichlorophenyl)-8-[2-(dimethylamino)ethyl]-2-{[4-(4-methylpiperazin-1-yl)phenyl]amino}pyrido[2,3-d]pyrimidin-5(8H)-one] | 24 nM |
| CN1CCN(c2ccc(Nc3ncc4c(=O)c(-c5c(Cl)cccc5Cl)cn(CC(C)(C)O)c4n3)cc2)CC1 [Example 16, 6-(2,6-dichlorophenyl)-8-(2-hydroxy-2-methylpropyl)-2-{[4-(4-methylpiperazin-1-yl)phenyl]amino}pyrido[2,3-d]pyrimidin-5(8H)-one] | 20 nM |
| O=c1c(-c2c(Cl)cccc2Cl)cn(C2CC2)c2nc(Nc3ccc4c(c3)CNCC43CC3)ncc12 [Example 24, 8-cyclopropyl-6-(2,6-dichlorophenyl)-2-(2′,3′-dihydro-1′H-spiro[cyclopropane-1,4′-isoquinolin]-7′-ylamino)pyrido[2,3-d]pyrimidin-5(8H)-one] | 0.8 nM |
| CN(C)C1Cc2ccc(Nc3ncc4c(=O)c(-c5c(Cl)cccc5Cl)cn(C5CC5)c4n3)cc2C1 (stereo not drawn) [Example 25, 8-cyclopropyl-6-(2,6-dichlorophenyl)-2-{[2-(dimethylamino)-2,3-dihydro-1H-inden-5-yl]amino}pyrido[2,3-d]pyrimidin-5(8H)-one] | 1.2 nM |
| CC(C)n1cc(-c2c(Cl)cccc2Cl)c(=O)c2cnc(Nc3ccc(N4CCN(C)CC4)cc3)nc21 [Example 26, 6-(2,6-dichlorophenyl)-2-{[4-(4-methylpiperazin-1-yl)phenyl]amino}-8-(propan-2-yl)pyrido[2,3-d]pyrimidin-5(8H)-one] | 1.2 nM |
| CN1CCN(c2ccc(Nc3ncc4c(=O)c(-c5c(Cl)cccc5Cl)cn(C5COC5)c4n3)cc2)CC1 [Example 27, 6-(2,6-dichlorophenyl)-2-{[4-(4-methylpiperazin-1-yl)phenyl]amino}-8-(oxetan-3-yl)pyrido[2,3-d]pyrimidin-5(8H)-one] | 1.3 nM |
| CN1CCN(c2ccc(Nc3ncc4c(=O)c(-c5c(Cl)cccc5Cl)cn(C(C)(C)C)c4n3)cc2)CC1 [Example 28, 8-tert-butyl-6-(2,6-dichlorophenyl)-2-{[4-(4-methylpiperazin-1-yl)phenyl]amino}pyrido[2,3-d]pyrimidin-5(8H)-one] | 19 nM |
| COc1ccc(Cn2cc(-c3c(Cl)cccc3Cl)c(=O)c3cnc(Nc4ccc5c(c4)CN(C)CC54CC4)nc32)cc1 [Example 29, 6-(2,6-dichlorophenyl)-8-(4-methoxybenzyl)-2-[(2′-methyl-2′,3′-dihydro-1′H-spiro[cyclopropane-1,4′-isoquinolin]-7′-yl)amino]pyrido[2,3-d]pyrimidin-5(8H)-one] | 6.4 nM |

Second part, the compound after the results:

| Ki | Compound |
| --- | --- |
| 0.1 nM | CN1CCN(c2ccc(Nc3ncc4c(=O)c(-c5c(Cl)cccc5Cl)cn(-c5ccccc5)c4n3)cc2)CC1 [Example 4, 6-(2,6-dichlorophenyl)-2-{[4-(4-methylpiperazin-1-yl)phenyl]amino}-8-phenylpyrido[2,3-d]pyrimidin-5(8H)-one] |
| 0.6 nM | CN1CCN(c2ccc(Nc3ncc4c(=O)c(-c5c(Cl)cccc5Cl)cn(-c5ccncc5)c4n3)cc2)CC1 [Example 7, 6-(2,6-dichlorophenyl)-2-{[4-(4-methylpiperazin-1-yl)phenyl]amino}-8-(pyridin-4-yl)pyrido[2,3-d]pyrimidin-5(8H)-one] |
| 0.3 nM | CN1CCN(c2ccc(Nc3ncc4c(=O)c(-c5c(Cl)cccc5Cl)cn(C)c4n3)cc2)CC1 [Example 8, 6-(2,6-dichlorophenyl)-8-methyl-2-{[4-(4-methylpiperazin-1-yl)phenyl]amino}pyrido[2,3-d]pyrimidin-5(8H)-one] |
| 0.3 nM | CN1Cc2cc(Nc3ncc4c(=O)c(-c5c(Cl)cccc5Cl)cn(C)c4n3)ccc2C2(CC2)C1 [Example 14, 6-(2,6-dichlorophenyl)-8-methyl-2-[(2′-methyl-2′,3′-dihydro-1′H-spiro[cyclopropane-1,4′-isoquinolin]-7′-yl)amino]pyrido[2,3-d]pyrimidin-5(8H)-one] |
| 0.6 nM | CN1CCN(c2ccc(Nc3ncc4c(=O)c(-c5c(Cl)cccc5Cl)cn(C5CCC5)c4n3)cc2)CC1 [Example 15, 8-cyclobutyl-6-(2,6-dichlorophenyl)-2-{[4-(4-methylpiperazin-1-yl)phenyl]amino}pyrido[2,3-d]pyrimidin-5(8H)-one] |
| 0.2 nM | CN1Cc2cc(Nc3ncc4c(=O)c(-c5c(Cl)cccc5Cl)cn(C5CC5)c4n3)ccc2C2(CC2)C1 [Example 17, 8-cyclopropyl-6-(2,6-dichlorophenyl)-2-[(2′-methyl-2′,3′-dihydro-1′H-spiro[cyclopropane-1,4′-isoquinolin]-7′-yl)amino]pyrido[2,3-d]pyrimidin-5(8H)-one] |
| 0.3 nM | CN1CCN(c2ccc(Nc3ncc4c(=O)c(-c5c(Cl)cccc5Cl)c[nH]c4n3)cc2)CC1 [Example 18, 6-(2,6-dichlorophenyl)-2-{[4-(4-methylpiperazin-1-yl)phenyl]amino}pyrido[2,3-d]pyrimidin-5(8H)-one] |
| 0.3 nM | Cc1cc(Nc2ncc3c(=O)c(-c4c(Cl)cccc4Cl)cn(C)c3n2)ccc1N1CCCN(C)CC1 [Example 19, 6-(2,6-dichlorophenyl)-8-methyl-2-{[3-methyl-4-(4-methyl-1,4-diazepan-1-yl)phenyl]amino}pyrido[2,3-d]pyrimidin-5(8H)-one] |
| 0.3 nM | CN1Cc2cc(Nc3ncc4c(=O)c(-c5c(Cl)cccc5Cl)cn(C)c4n3)ccc2C(C)(C)C1 [Example 20, 6-(2,6-dichlorophenyl)-8-methyl-2-[(2,4,4-trimethyl-1,2,3,4-tetrahydroisoquinolin-7-yl)amino]pyrido[2,3-d]pyrimidin-5(8H)-one] |
| 0.3 nM | Cn1cc(-c2c(Cl)cccc2Cl)c(=O)c2cnc(Nc3ccc4c(c3)CNCC43CC3)nc21 [Example 21, 6-(2,6-dichlorophenyl)-2-(2′,3′-dihydro-1′H-spiro[cyclopropane-1,4′-isoquinolin]-7′-ylamino)-8-methylpyrido[2,3-d]pyrimidin-5(8H)-one] |
| 0.6 nM | CN(C)C1Cc2ccc(Nc3ncc4c(=O)c(-c5c(Cl)cccc5Cl)cn(C)c4n3)cc2C1 (stereo not drawn) [Example 22, 6-(2,6-dichlorophenyl)-2-{[2-(dimethylamino)-2,3-dihydro-1H-inden-5-yl]amino}-8-methylpyrido[2,3-d]pyrimidin-5(8H)-one] |
| 0.8 nM | CN1Cc2cc(Nc3ncc4c(=O)c(-c5c(Cl)cccc5Cl)cn(C5CC5)c4n3)ccc2C(C)(C)C1 [Example 23, 8-cyclopropyl-6-(2,6-dichlorophenyl)-2-[(2,4,4-trimethyl-1,2,3,4-tetrahydroisoquinolin-7-yl)amino]pyrido[2,3-d]pyrimidin-5(8H)-one] |
| 0.2 nM | CN1Cc2cc(Nc3ncc4c(=O)c(-c5c(Cl)cccc5Cl)c[nH]c4n3)ccc2C2(CC2)C1 [Example 30, 6-(2,6-dichlorophenyl)-2-[(2′-methyl-2′,3′-dihydro-1′H-spiro[cyclopropane-1,4′-isoquinolin]-7′-yl)amino]pyrido[2,3-d]pyrimidin-5(8H)-one] |
